Among the data in patent US10329324B2 (viDA Therapeutics Inc., priority 2013, dated 2019) are solubility, IC50 and inhibition values, retold here.

Where two headings read alike, the source gives them in different places.

For orientation: IC50 means the point on the concentration scale where inhibition reaches its midpoint.

Data set [1] is described as follows: Kinetic solubility determination in PBS. The settings on record: phosphate buffered saline (PBS 1×), 21 °C, pH 7.4, aqueous buffer, kinetic from dmso stock, PBS 1X pH 7.4, 2.0% DMSO, 24 hour incubation at ambient temperature. Type of data set: physicochemical. The method in brief:
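DMSO stocks were diluted into PBS (1×) pH 7.4 to 2.0% final DMSO and a maximum theoretical concentration of typically 200 μM. After 24 hour incubation at ambient temperature (20.5-21.7° C.), samples were vacuum filtered. The filtrate was quantified by chemiluminescent nitrogen detection against a nitrogen calibration curve, with background-corrected values given in μM and μg/mL.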

A further data set concerns the target T1, human Granzyme B (hGzmB) (Homo sapiens, UniProt P10144).
T1 construct: purchased Froelich Lab, Northshore University Health Systems Research Institute, Evanston, Ill., USA
Briefly: Human Granzyme B enzymatic inhibition assay (fluorogenic, kinetic). The settings on record: activity codes, Table 7; read-out: IC50 Activity Range. The class given is biochemical. An outline of the steps:
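Human Granzyme B preincubated with compound for 30 min total (5 min shaking, 20 min bench, then reaction temperature). Fluorogenic substrate added and read kinetically, 25 cycles at 1-min intervals. Percent inhibition at one or two concentrations or 8–12-point 3-fold dose response from 20 uM, replicates, with IC50 by non-linear regression.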

The target in another data set is GzmB (Homo sapiens, UniProt P10144). The experiment in a line: Inhibition of fibronectin cleavage by GzmB. Type of data set: biochemical. The settings on record: 20 nM granzyme B, labeled fibronectin; for inhibition at 0.62 µM: 0.62 uM inhibitor, read-out: Percent Inhibition at Inhibitor Concentration 0.62 uM; for inhibition at 5.56 µM: 5.56 uM inhibitor, read-out: Percent Inhibition at Inhibitor Concentration 5.56 uM; for inhibition at 50 µM: 50 uM inhibitor, read-out: Percent Inhibition at Inhibitor Concentration 50 uM. As to the method: Black, 96 well high-binding assay plates (Griener Bio-one) were treated overnight at 4° C. with 40 uL of 8 ug/mL Hilyte Fluor 488 labeled Fibronectin (Cytoskeleton, Inc). After fibronectin coating, plates were washed 3 times in buffer (20 mM Tris-HCl, pH 7.4, 20 mM NaCl) then once with granzyme B assay buffer (50 mM HEPES, pH 7.5, 0.1% CHAPS). After washing, 50 uL of granzyme B assay buffer was added to each fibronectin-coated well. In a separate non-binding 96 well assay plate 5 uL of 20× inhibitor serial dilution stocks were added to 45 uL of 2.22×GzmB mix to establish inhibition (enzyme/inhibitor mixes were all prepared in granzyme B assay buffer and were incubated first at room temperature for 20 minutes, then at 30° C. for another 10 minutes). After incubation, 50 uL of this 2× enzyme/inhibitor mix was added to the corresponding coated well to initiate fibronectin cleavage (20 nM final granzyme B concentration, 8-point inhibitor dilution series starting at 50 uM). The assay was conducted at 30° C. in the TECAN plate reader (TECAN INFINITE® M1000 Pro), which was programmed to monitor the kinetic fluorescence polarization signal (filter set Ex/Em 470 nm/527 nm) with readings taken every minute, for 1 hour. Proteolytic activity was evaluated as the rate of fluorescence enhancement in the parallel emission over the linear range of the reaction. % Inhibition values were calculated from assay controls and the resulting date is shown in Table 8.
GzmB, sequence (P10144 21-247): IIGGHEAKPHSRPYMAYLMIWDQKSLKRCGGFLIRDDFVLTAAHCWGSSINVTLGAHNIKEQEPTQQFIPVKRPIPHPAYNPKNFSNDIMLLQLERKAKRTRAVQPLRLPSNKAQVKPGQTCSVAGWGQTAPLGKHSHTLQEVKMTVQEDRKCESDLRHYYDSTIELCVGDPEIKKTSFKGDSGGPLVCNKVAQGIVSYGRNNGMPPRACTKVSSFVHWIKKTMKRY

The mark [2] stands for this setting: read-out: Solubility in aqueous PBS Buffer (1X, pH 7.4).
The mark [3] stands for this setting: read-out: Solubility in aqueous PBS Buffer (1X, pH 7.4), ug/mL.

T1 sequence (P10144 21-247): as above

Regarding `CC[C@H](C)[C@H](NC(=O)Cc1csc2ccccc12)C(=O)NCC(=O)N1c2ccccc2C[C@H]1C(=O)NCc1nn[nH]n1` [Example A27, (2S)-1-{2-[(2S,3S)-2-[2-(1-Benzothiophen-3-Yl)Acetamido]-3-Methylpentanamido]Acetyl}-N-(2H-1,2,3,4-Tetrazol-5-Ylmethyl)-2,3-Dihydro-1H-Indole-2-Carboxamide], in data set [1] (setting [2]), the solubility at 24 h came out at 53 µM. Besides, the solubility at 24 h in data set [1] (setting [3]) stood at 31 µg/mL. Moreover, the half-inhibitory concentration (IC50) on human Granzyme B (hGzmB) was less than 100 nM. Also, at GzmB, the inhibition at 0.62 µM is 57%, the inhibition at 5.56 µM turned out to be 96% and the inhibition at 50 µM was found to be 102%.
Turning to `CC[C@H](C)[C@H](NC(=O)Cc1nn[nH]n1)C(=O)NCC(=O)N1c2ccccc2C[C@H]1C(=O)NCc1nn[nH]n1` [Example A28, (2S)-1-{2-[(2S,3S)-3-Methyl-2-[2-(2H-1,2,3,4-Tetrazol-5-Yl)Acetamido]Pentanamido]Acetyl}-N-(2H-1,2,3,4-Tetrazol-5-Ylmethyl)-2,3-Dihydro-1H-Indole-2-Carboxamide], the solubility at 24 h in data set [1] (setting [2]) is greater than 750 µM. The solubility at 24 h in data set [1] (setting [3]) is greater than 393 µg/mL. Also, the 50% inhibitory concentration (IC50) on human Granzyme B (hGzmB) is less than 100 nM. Moreover, at GzmB, the inhibition at 0.62 µM stood at 45%, the inhibition at 5.56 µM came out at 79% and the inhibition at 50 µM stood at 98%.
For the compound `CC[C@H](C)[C@H](NC(=O)CCC(=O)O)C(=O)NCC(=O)N1c2ccccc2C[C@H]1C(=O)NCc1nn[nH]n1` [Example A13, 3-{[(1S,2S)-2-Methyl-1-({2-Oxo-2-[(2S)-2-[(2H-1,2,3,4-Tetrazol-5-Ylmethyl)Carbamoyl]-2,3-Dihydro-1H-Indol-1-Yl]Ethyl}Carbamoyl)Butyl]Carbamoyl}Propanoic Acid], in data set [1] (setting [2]), the solubility at 24 h was greater than 750 µM. Also, in data set [1] (setting [3]), the solubility at 24 h is greater than 386 µg/mL. The IC50 at human Granzyme B (hGzmB) is less than 100 nM. Further, at GzmB, the inhibition at 0.62 µM came to 11%, the inhibition at 5.56 µM was 52% and the inhibition at 50 µM was 82%.
As to `CC[C@H](C)[C@H](NC(=O)Cc1ccccc1)C(=O)NCC(=O)N1c2cc(N)ccc2C[C@H]1C(=O)NCc1nn[nH]n1` [Example C20, (2S)-6-Amino-1-{2-[(2S,3S)-3-Methyl-2-(2-Phenylacetamido)Pentanamido]Acetyl}-N-(2H-1,2,3,4-Tetrazol-5-Ylmethyl)-2,3-Dihydro-1H-Indole-2-Carboxamide], the solubility at 24 h in data set [1] (setting [2]) was 596 µM; in data set [1] (setting [3]), 348 µg/mL. For the same compound, the IC50 at human Granzyme B (hGzmB) is 100 to 1000 nM.
